Results taken from the SangsterLogP compilation.

Test: method code SF-HPLC, from DOI: 10.1021/jm4016729, PMID: 24422550
Conditions: pH 7.4

SMILES	logD
Cc1nc(C2=COC2)c(C(=O)NC2C3CC4CC2C(O)(C4)C3)s1 (configuration not stated)	1.5
O=C(NC1C2CC3CC1CC(O)(C3)C2)c1sc(C2CCCO2)nc1C1CC1 (configuration not stated)	2.4
